How the values were obtained:
human DLK [1] = biological target: T1, human DLK (Homo sapiens, UniProt Q12852); test: DLK Kd Determinations (KINOMEscan KdELECT, DiscoveRx); parameters: full length of human DLK (amino acids 1-859); host or cells: transiently transfected HEK293 cells; unpurified extract; details: fusion protein of full length human DLK (amino acids 1-859) and NFkB DNA binding domain; qPCR readout; duplicate
T1 sequence (Q12852 1-859): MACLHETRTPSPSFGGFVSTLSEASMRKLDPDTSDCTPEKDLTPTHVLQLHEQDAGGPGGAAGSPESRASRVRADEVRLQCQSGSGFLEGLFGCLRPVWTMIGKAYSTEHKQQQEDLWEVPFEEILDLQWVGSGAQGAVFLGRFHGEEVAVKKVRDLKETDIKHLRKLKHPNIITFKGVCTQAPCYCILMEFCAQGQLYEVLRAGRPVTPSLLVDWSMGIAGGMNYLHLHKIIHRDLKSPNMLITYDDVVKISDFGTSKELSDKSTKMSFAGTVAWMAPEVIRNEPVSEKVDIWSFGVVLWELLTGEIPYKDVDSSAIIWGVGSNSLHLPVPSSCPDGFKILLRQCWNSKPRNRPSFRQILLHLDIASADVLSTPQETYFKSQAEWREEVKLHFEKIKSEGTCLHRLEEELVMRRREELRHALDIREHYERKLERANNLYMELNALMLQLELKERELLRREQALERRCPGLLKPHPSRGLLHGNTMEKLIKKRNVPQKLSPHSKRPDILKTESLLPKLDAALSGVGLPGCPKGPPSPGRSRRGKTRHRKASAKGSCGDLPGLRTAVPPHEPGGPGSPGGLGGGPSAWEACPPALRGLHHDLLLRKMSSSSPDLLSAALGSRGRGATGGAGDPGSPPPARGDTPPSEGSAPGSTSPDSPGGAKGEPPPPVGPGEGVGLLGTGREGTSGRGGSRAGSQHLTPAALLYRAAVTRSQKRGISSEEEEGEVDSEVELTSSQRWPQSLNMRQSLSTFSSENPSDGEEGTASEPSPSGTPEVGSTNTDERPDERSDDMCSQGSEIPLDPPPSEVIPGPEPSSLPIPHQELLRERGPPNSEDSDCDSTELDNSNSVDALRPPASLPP
How it was run: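 Competition binding of full-length human DLK (aa 1-859)-NFkB DBD fusion, DNA-tagged, from HEK293 extracts against an immobilized ligand; 1 h at room temperature, 0.9% DMSO. Bead-bound kinase was quantified by qPCR. Kd came from an 11-point 3-fold series (top 30,000 nM), in duplicate, with Hill slope fixed at −1.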

human DLK [2] = biological target: T1, human DLK; test: Phospho-cJun Cellular Assay; format: cell-based; parameters: expressed in transfected cells; details: HEK293 cells stably transfected with Dox-inducible human DLK; p-cJun (Ser63); 5 h compound incubation
How it was run: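 HEK293 cells with doxycycline-induced human DLK (induced 20 h; uninduced cells as negative control) treated with compound for 5 h at 37 °C. Phospho-cJun (Ser63) measured in lysates with detection-antibody kit; IC50 from variable-slope dose-response fit.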

| SMILES | Kd (human DLK [1]) [nM] | IC50 (human DLK [2]) [nM] |
| --- | --- | --- |
| Nc1ncc(-c2cn([C@H]3[C@@H]4CC(N5CCCOCC5)C[C@@H]43)c(C3CC3)n2)cc1C(F)(F)F (single isomer, unassigned) [Example 141a, 5-(1-(3-(1,4-oxazepan-4-yl)bicyclo[3.1.0]hexan-6-yl)-2-cyclopropyl-1H-imidazol-4-yl)-3-(trifluoromethyl)pyridin-2-amine] | 26 | 655 |
| CC(C)c1nc(-c2cnc(N)c(C(F)(F)F)c2)cn1[C@H]1[C@@H]2CC(N3CCOC[C@@H]3C)C[C@@H]21 (stereo partly drawn) [Example 131, 5-(2-isopropyl-1-(3-((S)-3-methylmorpholino)bicyclo[3.1.0]hexan-6-yl)-1H-imidazol-4-yl)-3-(trifluoromethyl)pyridin-2-amine] | 34 | 1390 |
| CC(C)c1nc(-c2cnc(N)c(OC(F)(F)F)c2)cn1[C@H]1[C@@H]2CC(N3CCCOCC3)C[C@@H]21 (single isomer, unassigned) [Example 20b, 5-(1-(3-(1,4-oxazepan-4-yl)bicyclo[3.1.0]hexan-6-yl)-2-isopropyl-1H-imidazol-4-yl)-3-(trifluoromethoxy)pyridin-2-amine] | 44 | 1050 |
| COCCN1C[C@@H]2[C@H](C1)[C@H]2n1cc(-c2cnc(N)c(C(F)(F)F)c2)nc1C1CC1 [Example 94, 5-(2-cyclopropyl-1-((1R,5S,6s)-3-(2-methoxyethyl)-3-azabicyclo[3.1.0]hexan-6-yl)-1H-imidazol-4-yl)-3-(trifluoromethyl)pyridin-2-amine] | 61 | 1960 |
| Nc1ncc(-c2cn([C@H]3[C@@H]4CN(C5CCOCC5)C[C@@H]43)c(C3CC3)n2)cc1OC(F)(F)F [Example 66, 5-(2-cyclopropyl-1-((1R,5S,6s)-3-(tetrahydro-2H-pyran-4-yl)-3-azabicyclo[3.1.0]hexan-6-yl)-1H-imidazol-4-yl)-3-(trifluoromethoxy)pyridin-2-amine] | 59 | 827 |
| Nc1ncc(-c2cn([C@H]3[C@@H]4CN(C5CCOCC5)C[C@@H]43)c(CC3CC3)n2)cc1OC(F)F [Example 88, 5-(2-(cyclopropylmethyl)-1-((1R,5S,6s)-3-(tetrahydro-2H-pyran-4-yl)-3-azabicyclo[3.1.0]hexan-6-yl)-1H-imidazol-4-yl)-3-(difluoromethoxy)pyridin-2-amine] | 71 | 994 |
| CC(C)Cc1nc(-c2cnc(N)c(C(F)(F)F)c2)cn1[C@H]1[C@@H]2CC(N3CCN(C)CC3)C[C@@H]21 (single isomer, unassigned) [Example 146b, 5-(2-isobutyl-1-(3-(4-methylpiperazin-1-yl)bicyclo[3.1.0]hexan-6-yl)-1H-imidazol-4-yl)-3-(trifluoromethyl)pyridin-2-amine] | 4.5 | 346 |
| CC(C)c1nc(-c2cnc(N)c(OC(F)(F)F)c2)cn1[C@H]1[C@@H]2CC(N3CCN(C)CC3)C[C@@H]21 (single isomer, unassigned) [Example 133b, 5-(2-isopropyl-1-(3-(4-methylpiperazin-1-yl)bicyclo[3.1.0]hexan-6-yl)-1H-imidazol-4-yl)-3-(trifluoromethoxy)pyridin-2-amine] | 21 | 645 |
| Nc1ncc(-c2cn([C@H]3[C@@H]4CC(N5CCOCC5)C[C@@H]43)c(C3CC3)n2)cc1OC(F)(F)F (single isomer, unassigned) [Example 139a, 5-(2-cyclopropyl-1-(3-morpholinobicyclo[3.1.0]hexan-6-yl)-1H-imidazol-4-yl)-3-(trifluoromethoxy)pyridin-2-amine] | 37 | 544 |
| CC(C)c1nc(-c2cnc(N)c(OC(F)(F)F)c2)cn1[C@H]1[C@@H]2CN(C3CCOCC3)C[C@@H]21 [Example 81, 5-(2-isopropyl-1-((1R,5S,6s)-3-(tetrahydro-2H-pyran-4-yl)-3-azabicyclo[3.1.0]hexan-6-yl)-1H-imidazol-4-yl)-3-(trifluoromethoxy)pyridin-2-amine] | 99 | 1510 |
| CC(C)c1nc(-c2cnc(N)c(OC(F)(F)F)c2)cn1[C@H]1C[C@H](N2CCOCC2)C1 [Example 43, 5-(2-isopropyl-1-((1r,3r)-3-morpholinocyclobutyl)-1H-imidazol-4-yl)-3-(trifluoromethoxy)pyridin-2-amine] | 120 | 804 |
| Nc1ncc(-c2cn3c(n2)C(C2CC2)N(C2COC2)CC3)cc1C(F)(F)F (stereo not drawn) [Example 4, 5-[8-cyclopropyl-7-(oxetan-3-yl)-5H,6H,7H,8H-imidazo[1,2-a]pyrazin-2-yl]-3-(trifluoromethyl)pyridin-2-amine] | 390 | 14800 |
| CCC(CC)c1nc(-c2cnc(N)c(C(F)(F)F)c2)cn1[C@H]1[C@@H]2CN(CCF)C[C@@H]21 [Example 125, 5-(1-((1R,5S,6s)-3-(2-fluoroethyl)-3-azabicyclo[3.1.0]hexan-6-yl)-2-(pentan-3-yl)-1H-imidazol-4-yl)-3-(trifluoromethyl)pyridin-2-amine] | 120 | 1290 |
| CN1CCN(C2C[C@@H]3[C@H](C2)[C@H]3n2cc(-c3cnc(N)c(C(F)(F)F)c3)nc2C2CC2)CC1 (single isomer, unassigned) [Example 129a, 5-(2-cyclopropyl-1-(3-(4-methylpiperazin-1-yl)bicyclo[3.1.0]hexan-6-yl)-1H-imidazol-4-yl)-3-(trifluoromethyl)pyridin-2-amine] | 12.8 | 503 |
| CC(C)c1nc(-c2cnc(N)c(OC(F)F)c2)cn1[C@H]1[C@@H]2CC(N3CCN(C)CC3)C[C@@H]21 (single isomer, unassigned) [Example 145b, 3-(difluoromethoxy)-5-(2-isopropyl-1-(3-(4-methylpiperazin-1-yl)bicyclo[3.1.0]hexan-6-yl)-1H-imidazol-4-yl)pyridin-2-amine] | 50 | 889 |
| CC(C)c1nc(-c2cnc(N)c(OC(F)(F)F)c2)cn1[C@H]1[C@@H]2CC(N3CCOCC3)C[C@@H]21 (single isomer, unassigned) [Example 19a] | 76 | 666 |
| CC(C)c1nc(-c2cnc(N)c(OC(F)(F)F)c2)cn1[C@H]1[C@@H]2CC(N3CCOCC3)C[C@@H]21 (single isomer, unassigned) [Example 19b] | 38 | 493 |
| CC(C)Cc1nc(-c2cnc(N)c(C(F)(F)F)c2)cn1[C@H]1[C@@H]2CC(N3CCN(CCF)CC3)C[C@@H]21 (single isomer, unassigned) [Example 160a, 5-(1-(3-(4-(2-fluoroethyl)piperazin-1-yl)bicyclo[3.1.0]hexan-6-yl)-2-isobutyl-1H-imidazol-4-yl)-3-(trifluoromethyl)pyridin-2-amine] | 13 | 738 |
| CC(C)c1nc(-c2cnc(N)c(C(F)(F)F)c2)cn1[C@H]1[C@@H]2CC(N3CCN(CCF)CC3)C[C@@H]21 (single isomer, unassigned) [Example 155b, 5-(1-(3-(4-(2-fluoroethyl)piperazin-1-yl)bicyclo[3.1.0]hexan-6-yl)-2-isopropyl-1H-imidazol-4-yl)-3-(trifluoromethyl)pyridin-2-amine] | 4.5 | 1160 |
| Nc1ncc(-c2cn([C@H]3[C@@H]4CC(N5CCN(CCF)CC5)C[C@@H]43)c(C3CC3)n2)cc1C(F)(F)F (single isomer, unassigned) [Example 153a, 5-(2-cyclopropyl-1-(3-(4-(2-fluoroethyl)piperazin-1-yl)bicyclo[3.1.0]hexan-6-yl)-1H-imidazol-4-yl)-3-(trifluoromethyl)pyridin-2-amine] | 22 | 891 |
| CC(C)c1nc(-c2cnc(N)c(C(F)(F)F)c2)cn1[C@H]1C[C@H](N2CCOCC2)C1 [Example 42, 5-(2-isopropyl-1-((1r,3r)-3-morpholinocyclobutyl)-1H-imidazol-4-yl)-3-(trifluoromethyl)pyridin-2-amine] | 180 | 2230 |

From US20180057507A1, “INHIBITORS OF DUAL LEUCINE ZIPPER (DLK) KINASE FOR THE TREATMENT OF DISEASE” (Board of Regents, The University of Texas System, priority 2016, published 2018)
